Source: patent US20240174662A1, “SMALL MOLECULE INHIBITORS OF SALT INDUCIBLE KINASES” (Janssen Biotech, Inc., priority 2021, published 2024)
pIC50: −log10 of the molar value.

Target: SIK2 (Homo sapiens (Human), UniProt Q9H0K1)
Assay: SIK2 Enzymatic Assay Version 2 (High ATP)
Type: biochemical
Conditions: 3 mM ATP and 200 μM HDAC5tide final, ADP-Glo Max luminescence
Procedure, shortened: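 Run at room temperature; SIK2 enzyme at 6 nM (2× final) preincubated with compound 30 min before reaction. ADP formation detected by ADP-Glo Max (2 h reagent, 1 h detection) with luminescence read-out.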

Chain of SIK2 (Q9H0K1 whole entry, species assumed): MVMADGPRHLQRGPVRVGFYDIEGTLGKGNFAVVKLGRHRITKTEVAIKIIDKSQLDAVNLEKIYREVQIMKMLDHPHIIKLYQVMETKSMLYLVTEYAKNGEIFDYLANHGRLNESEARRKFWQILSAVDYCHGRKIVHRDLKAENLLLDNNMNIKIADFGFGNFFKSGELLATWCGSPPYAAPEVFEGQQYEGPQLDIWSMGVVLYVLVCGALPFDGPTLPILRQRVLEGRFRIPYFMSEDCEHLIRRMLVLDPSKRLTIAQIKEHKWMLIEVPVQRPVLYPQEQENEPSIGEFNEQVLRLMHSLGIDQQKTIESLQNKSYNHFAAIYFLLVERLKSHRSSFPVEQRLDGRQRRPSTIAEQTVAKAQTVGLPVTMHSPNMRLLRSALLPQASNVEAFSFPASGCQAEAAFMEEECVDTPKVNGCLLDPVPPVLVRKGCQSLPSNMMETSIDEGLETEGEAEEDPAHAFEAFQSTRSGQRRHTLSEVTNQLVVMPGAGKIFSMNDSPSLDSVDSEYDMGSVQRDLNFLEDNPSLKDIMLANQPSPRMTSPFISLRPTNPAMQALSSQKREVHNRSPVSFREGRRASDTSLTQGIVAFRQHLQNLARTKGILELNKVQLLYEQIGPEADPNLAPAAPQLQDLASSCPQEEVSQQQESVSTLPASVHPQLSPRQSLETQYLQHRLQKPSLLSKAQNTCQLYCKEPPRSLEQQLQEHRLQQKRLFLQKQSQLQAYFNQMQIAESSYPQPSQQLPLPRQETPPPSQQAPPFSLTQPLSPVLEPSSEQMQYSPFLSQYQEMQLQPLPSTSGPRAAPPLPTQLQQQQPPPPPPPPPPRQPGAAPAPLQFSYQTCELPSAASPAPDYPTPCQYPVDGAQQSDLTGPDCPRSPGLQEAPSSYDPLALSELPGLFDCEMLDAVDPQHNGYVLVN

Q: How did the pIC50 turn out when `CN1CC(F)(F)C1COc1cnn(C)c1-c1ccn2nc(NC(=O)C3CC3)cc2c1` (racemic) [Example 60, rac-N-[5-[4-[(3,3-difluoro-1-methyl-azetidin-2-yl)methoxy]-2-methyl-pyrazol-3-yl]pyrazolo[1,5-a]pyridin-2-yl]cyclopropanecarboxamide] was run?
A: 6.64

Q: With `CN1CCC[C@@H]1COc1cnn(C)c1-c1ccn2nc(NC(=O)C3CC3)cc2c1` [Example 239, N-[5-[2-methyl-4-[[(2R)-1-methylpyrrolidin-2-yl]methoxy]pyrazol-3-yl]pyrazolo[1,5-a]pyridin-2-yl]cyclopropanecarboxamide] as the compound, how does the pIC50 read?
A: 7.64

Q: With `Cc1onc(O[C@H]2C[C@@H]3C[C@H]2CN3)c1-c1ccn2nc(NC(=O)C3CC3)cc2c1` (single isomer, unassigned) [Example 217, N-(5-(3-(((1*S,4*S,5*R)-2-azabicyclo[2.2.1]heptan-5-yl)oxy)-5-methylisoxazol-4-yl)pyrazolo[1,5-a]pyridin-2-yl)cyclopropanecarboxamide] as the compound, how does the pIC50 read?
A: 7.62

Q: With `CCN1CC[C@H]1COc1cnn(C)c1-c1ccn2nc(NC(=O)C3CC3)cc2c1` [Example 47, N-[5-[4-[[(2S)-1-ethylazetidin-2-yl]methoxy]-2-methyl-pyrazol-3-yl]pyrazolo[1,5-a]pyridin-2-yl]cyclopropanecarboxamide] as the compound, how does the pIC50 read?
A: 7.06

Q: `Cn1ncc(OC[C@H]2CCN2)c1-c1ccn2nc(Nc3cncc(-n4cccn4)n3)cc2c1` [Example 291, 5-[4-[[(2R)-azetidin-2-yl]methoxy]-2-methyl-pyrazol-3-yl]-N-(6-pyrazol-1-ylpyrazin-2-yl)pyrazolo[1,5-a]pyridin-2-amine] was tested. Which pIC50 did it give?
A: 7.51

Q: With `Cc1cnc(Nc2cc3cc(-c4c(COC5CN(C)CC5C)cnn4C)ccn3n2)cn1` (racemic) [Example 376, Rac-CIS-5-[4-[(1,4-dimethylpyrrolidin-3-yl)oxymethyl]-2-methyl-pyrazol-3-yl]-N-(5-methylpyrazin-2-yl)pyrazolo[1,5-a]pyridin-2-amine] as the compound, how does the pIC50 read?
A: 8.37

Q: With `Cc1onc(O[C@H]2C[C@H](N)C2)c1-c1ccn2nc(NC(=O)C3CC3)cc2c1` [Example 386, N-[5-[3-(3-aminocyclobutoxy)-5-methyl-isoxazol-4-yl]pyrazolo[1,5-a]pyridin-2-yl]cyclopropanecarboxamide] as the compound, how does the pIC50 read?
A: 6.95

Q: `C[C@@H]1C[C@H](Oc2cnn(C)c2-c2ccn3nc(NC(=O)C4CC4)cc3c2)CN1C` [Example 336, N-[5-[4-[(3S,5R)-1,5-dimethylpyrrolidin-3-yl]oxy-2-methyl-pyrazol-3-yl]pyrazolo[1,5-a]pyridin-2-yl]cyclopropanecarboxamide] was tested. Which pIC50 did it give?
A: 7.18

Q: With `Cn1ncc(COC2CNCC2(F)F)c1-c1ccn2nc(NC(=O)C3CC3)cc2c1` (racemic) [Example 184, (RS)—N-[5-[4-[(4,4-difluoropyrrolidin-3-yl)oxymethyl]-2-methyl-pyrazol-3-yl]pyrazolo[1,5-a]pyridin-2-yl]cyclopropanecarboxamide] as the compound, how does the pIC50 read?
A: 7.84

Q: How did the pIC50 turn out when `CN1CC[C@@H](COc2cnn(CC3CC3)c2-c2ccn3nc(NC(=O)C4CC4)cc3c2)C1` [Example 489, N-[5-[2-(cyclopropylmethyl)-4-[[(3R)-1-methylpyrrolidin-3-yl]methoxy]pyrazol-3-yl]pyrazolo[1,5-a]pyridin-2-yl]cyclopropanecarboxamide] was run?
A: 4.87

Q: With `CCN1CC[C@@H]1COc1cnn(C)c1-c1ccn2nc(Nc3ccnc(OC)n3)cc2c1` [Example 163, 5-[4-[[(2R)-1-ethylazetidin-2-yl]methoxy]-2-methyl-pyrazol-3-yl]-N-(2-methoxypyrimidin-4-yl)pyrazolo[1,5-a]pyridin-2-amine] as the compound, how does the pIC50 read?
A: 8.66

Q: With `COC1(COc2noc(C)c2-c2ccn3nc(NC(=O)C4CC4)cc3c2)CNC1` [Example 76, N-[5-[3-[(3-methoxyazetidin-3-yl)methoxy]-5-methyl-isoxazol-4-yl]pyrazolo[1,5-a]pyridin-2-yl]cyclopropanecarboxamide] as the compound, how does the pIC50 read?
A: 7.91
